Measured values reported in US20260159519A1, “IMIDAZOPYRIDAZINE SUBSTITUTED BENZENE RING DERIVATIVE, PREPARATION METHOD, PHARMACEUTICAL COMPOSITION AND USE” (SHANGHAI SIMR BIOTECHNOLOGY CO., LTD., priority 2022, published 2026).
Where two headings read alike, the source gives them in different places.

Legend:
[1] = biological target: T1, human α2-GABAA receptor (BZD site, membrane protein of HEK293 cells) (Homo sapiens, UniProt P18507+P47869); test: Radioligand competitive binding assay (3H-flunitrazepam) at the BZD site of the α2-GABAA receptor
T1 construct: expressed in transfected cells
Excerpt: (§1) α subunit, β subunit, and γ subunit are essential for the formation of a complete and functional GABAA receptor. In this example of the present disclosure, HEK293 cells stably expressing the human α1-GABAA receptor (α1-GABAAR) and α2-GABAA receptor (α2-GABAAR) were constructed and separately selected using the lipofection method (Felgner, P. L., et al. Proceedings of the National Academy of Sciences, 1987, 84: 7413-7417). The α1-GABAAR-HEK293 cell model simultaneously expressed the α1 subunit (for protein sequence, see GenBank accession No.: NM_000806.5), the […] (for protein sequence, see GenBank accession No.: NM_000814.5), and the […] (for protein sequence, see GenBank accession No.: NM_000816.3). The α2-GABAAR-HEK293 cell model simultaneously expressed the α2 subunit (for protein sequence, see GenBank accession No.: NM_000807.4), the β3 subunit (for protein sequence, see GenBank accession No.: NM_000814.5), and the γ2 subunit (for protein sequence, see GenBank accession No.: NM_000816.3).
(§2) The above cell lines were subcultured. The α2-GABAAR-HEK293 cells were expanded for testing the affinity of compounds to the benzodiazepine (BZD) site of the GABAA receptor. During the passage process, some of the α1-GABAAR-HEK293 cells and α2-GABAAR-HEK293 cells were suspended and plated on a slide pre-treated with Poly-D-Lysine for electrophysiological testing (method referenced from patent CN107344936A, paragraph 0586).
The affinity of the compounds for the α2-GABAA receptor was determined by competing for the binding of ^3H-flunitrazepam (isotope ^3H-labelled flunitrazepam) to the BZD site on the membrane protein of HEK293 cells stably expressing the human α2-GABAAR.
Membrane preparation: Cells were suspended in 50 mM Tris-HCl buffer (pH=7.4), homogenized 10 times for 20 seconds with a homogenizer on ice, and centrifuged at 1000 g for 10 minutes at 4° C. The supernatant was taken, and the above steps were repeated. The supernatant was centrifuged at 4° C. (33800 g; Thermo, rotor: A27-8×50) for 60 minutes. The precipitate was resuspended in Tris buffer (50 mM Tris-HCl, 10 mM MgCl2, 0.5 mM EDTA, and 10% glycerol). The protein content was determined (BCA (bicinchoninic acid) protein quantification assay based on copper ion reduction, with a BCA kit purchased from Pierce (Annoron (Beijing) Biotechnology Co., Ltd.)), and 1 mL aliquots were prepared and stored at −80° C.
Radioligand competitive binding assay: This assay was performed in a 200 μL system (96-well plate) containing 100 μL of cell membrane. The concentration of ^3H-flunitrazepam was 1 nM, and the concentrations of the test compounds were in the range of […]. Flumazenil was used as a control. 1 μL of 2 mM flumazenil (final […]) was added to each low signal control (low control, LC) well, and 1 μL of dimethyl sulfoxide was added to each high signal control (high control, HC) well. The final concentration of target membrane protein was […]. All sample stock solutions of test compounds were 10 mM dimethyl sulfoxide solutions. All the samples were diluted to a concentration of 0.2 mM with dimethyl sulfoxide, and then subjected to a 4-fold serial dilution for a total of 8 working concentration gradients. The 96-well plate was sealed with a sealing membrane and then incubated on a shaker at room temperature for 1 hour. Meanwhile, a GF/C filter plate was soaked in plate soaking buffer (0.3% PEI (polyethyleneimine, purchased from Sigma-Aldrich, model: P314), stored at 4° C.) for at least 0.5 hours. After the binding incubation was completed, the cells were harvested onto the GF/C filter plate using a cell harvester and washed four times with plate washing buffer (50 mM Tris-HCl, pH 7.4, stored at 4° C.). After drying in an oven at 50° C. for 1 hour, the dried GF/C filter plate was bottom-sealed. The residual radioactivity on the filter membrane was detected by liquid scintillation counting.

[2] = biological target: T2, human α1-GABAA receptor (α1-GABAAR-HEK293 cells) (Homo sapiens, UniProt P14867+P18507); test: Whole-cell patch-clamp electrophysiology, positive allosteric modulatory activity on α1-GABAA receptor; assay type: cell-based; details: read-out: α1-GABAA positive allosteric modulatory activity
T2 construct: expressed in transfected cells
Excerpt: as §1, §2
(§3) The positive regulatory activity of the test drugs on the α1-GABAA receptor and the α2-GABAA receptor was detected by the electrophysiological method. The specific method was as follows:
(§4) Compound concentration setting: The final concentration of the compounds used for screening was 100 nM. For cell lines expressing the α1-GABAA receptor, the concentration of GABA was 0.05 to 0.07 μM (approximately EC2-4). For cell lines expressing the α2-GABAA receptor, the concentration of GABA was 0.10 to 0.11 μM (approximately EC7-8). Electrophysiological testing was performed using the whole-cell patch-clamp technique, which can refer to the method reported in the literature (Nickolls, S. A., et al. British Journal of Pharmacology, 2018, 175: 708-725). The composition of the extracellular solution (ECS) for electrophysiology was as follows: 150 mM NaCl, 5 mM KCl, 2.5 mM CaCl2, 1 mM MgCl2, 10 mM HEPES, and 10 mM glucose (pH 7.4). The formulation of the intracellular solution (ICS) for electrophysiology was as follows: 140 mM CsCl, 11 mM EGTA, 10 mM HEPES, 2 mM CaCl2, 1 mM MgCl2, 4 mM MgATP, and 2 mM TEA (pH 7.3). GABA (γ-aminobutyric acid) powder was prepared into a mother liquor with pure water, which was then diluted in ECS. The compound was first prepared into a 4 mM mother liquor with dimethyl sulfoxide, which was then gradually diluted in the corresponding concentration of GABA-ECS. The solutions were freshly prepared prior to electrophysiological testing.
(§5) Electrophysiological signal acquisition was performed using an EPC 10 amplifier and PatchMaster software (HEKA) or an Axon 700B amplifier and Clampex software (AXON). The recording electrode was made through a drawing process using borosilicate glass, with an electrode resistance of 4 to 6 MΩ. Extracellular administration was performed using the ALA-VC-8PG™ system. A single, independently growing cell was selected. After the glass electrode formed a good seal with the cell, the membrane was ruptured to form the whole-cell configuration. The cell membrane potential was clamped at −60 mV and recorded in Gap-free mode. During the test, the extracellular solution was first applied extracellularly for approximately 20 seconds. After the baseline (Iprebaseline) stabilized, the extracellular solution was switched to GABA-ECS. At this point, the current induced by GABA (Igaba) could be detected. After approximately 10 to 20 seconds, when the current stabilized, the extracellular solution was switched to a mixture of the compound and GABA-ECS. […]

[3] = biological target: T3, human α2-GABAA receptor (α2-GABAAR-HEK293 cells) (Homo sapiens, UniProt P18507+P47869); test: Whole-cell patch-clamp electrophysiology, positive allosteric modulatory activity on α2-GABAA receptor; assay type: cell-based; details: read-out: α2-GABAA positive allosteric modulatory activity
T3 construct: expressed in transfected cells
Excerpt: as §1, §2, §3, §4, §5

[4] = competition with 1 nM 3H-flunitrazepam, Ki calculated from IC50, read-out: α2 Ki

SMILES | Ki [1, 4] [nM] | activation at 0.1 µM [2] [%] | activation at 0.1 µM [3] [%] | Ki [1] [nM]
CCn1cnc2c(-c3ccc(F)c(-c4cc5cc(C(C)=O)c(=O)n(C)c5cc4OC)c3)cnnc21 [Example 1, 3-Acetyl-6-(5-(7-ethyl-7H-imidazo[4,5-c]pyridazin-4-yl)-2-fluorophenyl)-7-methoxy-1-methylquinolin-2(1H)-one] | 6 | 13 | 151 | –
CCn1cnc2c(-c3ccc(F)c(-c4cc5c(cc4OC)-c4c(cnn4C)CO5)c3)cnnc21 [Example 10, 7-(5-(7-Ethyl-7H-imidazo[4,5-c]pyridazin-4-yl)-2-fluorophenyl)-8-methoxy-1-methyl-1,4-dihydrochromeno[4,3-c]pyrazole] | 26.9 | 1 | 98 | –
CCn1cnc2c(-c3ccc(F)c(-c4cc5cn([C@H]6CCN(C)C[C@@H]6F)nc5cc4OC)c3)cnnc21 (racemic) [Example 63, 7-Ethyl-4-(4-fluoro-3-(2-((3S,4S)-3-fluoro-1-methylpiperidin-4-yl)-6-methoxy-2H-indazol-5-yl)phenyl)-7H-imidazo[4,5-c]pyridazine] | 3.51 | 37 | 81 | –
CCn1cnc2c(-c3ccc(F)c(-c4cc5oc(=O)n(CCOC)c5cc4OC)c3)cnnc21 [Example 28, 6-(5-(7-Ethyl-7H-imidazo[4,5-c]pyridazin-4-yl)-2-fluorophenyl)-5-methoxy-3-(2-methoxyethyl)benzo[d]oxazol-2(3H)-one] | 8.56 | 38 | 115 | –
CCn1cnc2c(-c3ccc(F)c(-c4cc5cccnc5cc4OC)c3)cnnc21 [Example 139, 6-(5-(7-Ethyl-7H-imidazo[4,5-c]pyridazin-4-yl)-2-fluorophenyl)-7-methoxyquinoline] | 13.2 | 35 | 122 | –
CCn1cnc2c(-c3ccc(F)c(-c4ccc5c(ncn5C)c4OC)c3)cnnc21 [Example 126, 7-Ethyl-4-(4-fluoro-3-(4-methoxy-1-methyl-1H-benzo[d]imidazol-5-yl)phenyl)-7H-imidazo[4,5-c]pyridazine] | 5.22 | -35 | 90 | –
CCn1cnc2c(-c3ccc(F)c(-c4ccc5c(ncn5C5COC5)c4OC)c3)cnnc21 [Example 115, 7-Ethyl-4-(4-fluoro-3-(4-methoxy-1-(oxetan-3-yl)-1H-benzo[d]imidazol-5-yl)phenyl)-7H-imidazo[4,5-c]pyridazine] | 16.4 | -25 | 85 | –
CCn1cnc2c(-c3ccc(F)c(-c4cc5ccc(=O)n(C)c5cc4OC)c3)cnnc21 [Example 55, 6-(5-(7-Ethyl-7H-imidazo[4,5-c]pyridazin-4-yl)-2-fluorophenyl)-7-methoxy-1-methylquinolin-2(1H)-one] | 2.43 | 21 | 81 | –
CCn1cnc2c(-c3ccc(F)c(-c4cc5cc(COC)c(=O)n(C)c5cc4OC)c3)cnnc21 [Example 166, 6-(5-(7-Ethyl-7H-imidazo[4,5-c]pyridazin-4-yl)-2-fluorophenyl)-7-methoxy-3-(methoxymethyl)-1-methylquinolin-2(1H)-one] | 2.39 | 12 | 128 | –
CCn1cnc2c(-c3ccc(F)c(-c4cc5c(cc4OC)N(CCN4CCCC4)C(=O)CO5)c3)cnnc21 [Example 17, 7-(5-(7-Ethyl-7H-imidazo[4,5-c]pyridazin-4-yl)-2-fluorophenyl)-6-methoxy-4-(2-(pyrrolidin-1-yl)ethyl)-2H-benzo[b][1,4]oxazin-3(4H)-one] | – | 47 | 125 | 14.4
CCn1cnc2c(-c3ccc(F)c(-c4cc5cnn(C)c5cc4OC)c3)cnnc21 [Example 142, 7-Ethyl-4-(4-fluoro-3-(6-methoxy-1-methyl-1H-indazol-5-yl)phenyl)-7H-imidazo[4,5-c]pyridazine] | 4.54 | 36 | 99 | –
CCn1cnc2c(OC)c(-c3cc(-c4cnnc5c4ncn5CC)ccc3F)ccc21 [Example 119, 7-Ethyl-4-(3-(1-ethyl-4-methoxy-1H-benzo[d]imidazol-5-yl)-4-fluorophenyl)-7H-imidazo[4,5-c]pyridazine] | 15.4 | -10 | 86 | –
CCn1cnc2c(-c3ccc(F)c(-c4cc5cn(C6CCN(C)CC6(F)F)nc5cc4OC)c3)cnnc21 (stereo not drawn) [Example 74, 4-(3-(2-(3,3-Difluoro-1-methylpiperidin-4-yl)-6-methoxy-2H-indazol-5-yl)-4-fluorophenyl)-7-ethyl-7H-imidazo[4,5-c]pyridazine] | 6.99 | 9 | 104 | –
CCn1cnc2c(-c3ccc(F)c(-c4cc5cn(C6CCOC6)nc5cc4OC)c3)cnnc21 (stereo not drawn) [Example 122, 7-Ethyl-4-(4-fluoro-3-(6-methoxy-2-(tetrahydrofuran-3-yl)-2H-indazol-5-yl)phenyl)-7H-imidazo[4,5-c]pyridazine] | 4.76 | 39 | 125 | –
CCn1cnc2c(-c3ccc(F)c(-c4cc5cn(C)nc5cc4OC)c3)cnnc21 [Example 141, 7-Ethyl-4-(4-fluoro-3-(6-methoxy-2-methyl-2H-indazol-5-yl)phenyl)-7H-imidazo[4,5-c]pyridazine] | 9.15 | 37 | 105 | –
